Laboratory results published in patent US9133262B2, “Somatostatin antagonists” (Ipsen Pharma S.A.S., priority 1996, dated 2015).
Positions of bridges follow the written chain, without caps; N, C: chain ends. Non-standard residues stand in square brackets, D forms with d. Residues, ends and D or L forms follow the SMILES beside them. Phe(4-NO2) = N[C@@H](Cc1ccc([N+](=O)[O-])cc1)C(=O)O; Bip = N[C@@H](Cc1ccc(-c2ccccc2)cc1)C(=O)O; dBip = N[C@H](Cc1ccc(-c2ccccc2)cc1)C(=O)O; Phe(4-F) = N[C@@H](Cc1ccc(F)cc1)C(=O)O; dPhe(4-F) = N[C@H](Cc1ccc(F)cc1)C(=O)O; 2Nal = N[C@@H](Cc1ccc2ccccc2c1)C(=O)O; d2Nal = N[C@H](Cc1ccc2ccccc2c1)C(=O)O; 3Pal = N[C@@H](Cc1cccnc1)C(=O)O; Tle = CC(C)(C)[C@H](N)C(=O)O; Nle = CCCC[C@H](N)C(=O)O

What follows are molecules tested on rat pituitary cells. Conditions: 3 h.
Format: cell-based
From the text: Bioassay on the In Vitro Release of Growth Hormone
(a) Rat Pituitary Cell Dispersion
Pituitaries from adult Charles River CD male rats (Wilmington, Mass.) housed under controlled conditions were dispersed and cultured using aseptic technique by modification of previously described methods (Hoefer, M. T., et al., Mol. Cell. Endocrinol. 35:229 (1984); Ben-Jonathan, N., et al., Methods Enzymol. 103:249 (1983); and Heiman, M. L., et al., Endocrinology 116:410 (1985)). Pituitaries were removed from sacrificed rats, sectioned, and then placed into a siliconized, liquid scintillation vial containing 2 ml 0.2% trypsin (Worthington Biochemicals, Freehold, N.J.) in sterile-filtered Krebs-Ringer bicarbonate buffer supplemented with 1% bovine serum albumin, 14 mM glucose, modified Eagle medium (MEM) vitamin solution, and MEM amino acids (Gibco Laboratories, Grand Island, N.Y.) (KRBGA). All glassware was siliconized as described by Sayers, et al., Endocrinology 88:1063 (1971). The fragments were incubated in a water bath for 35 min at 37° C. with agitation. The vial contents then were poured into a scintillation vial containing 2 ml 0.1% DNase (Sigma Chemical Co., St. Louis, Mo.) in KRBGA and incubated for 2 min at 37° C. with agitation. After incubation, the tissue was decanted into a 15 ml centrifuge tube and allowed to settle. Medium was discarded, and pituitary sections were washed 3 times with 1 ml fresh-KRBGA. The cells were then dispersed in 2 ml 0.05% LBI (lima bean trypsin inhibitor, Worthington Biochemicals) by gently drawing the fragments into and expelling them out of a siliconized, fire polished Pasteur pipette. Dispersed cells were then filtered through a 630 μm diameter Nylon mesh (Tetko, Elmsford, N.Y.) into a fresh 15 ml centrifuge tube. An additional 2 ml of 0.05% LBI solution was used to rinse the first tube and was transferred to the second tube with filtering.
The dispersed cells were then further diluted with approximately 15 ml sterile-filtered Dulbecco's modified Eagle medium (GIBCO), which was supplemented with 2.5% fetal calf serum (GIBCO), 3% horse serum (GIBCO), 10% fresh rat serum (stored on ice for no longer than 1 hr) from the pituitary donors, 1% MEM non-essential amino acids (GIBCO), and gentamycin (10 ng/ml; Sigma) and nystatin (10,000 U/ml; GIBCO). The cells were poured into a 50 ml round-bottomed glass extraction flask with a large diameter opening and then randomly plated at a density of approximately 200,000 cells per well (Co-star cluster 24; Rochester Scientific Co., Rochester, N.Y.). The plated cells were maintained in the above Dulbecco's medium in a humidified atmosphere of 95% air and 5% CO2 at 37° C. for 4-5 days.
(c) Experimental Incubation and IC50 Determination
In preparation for a hormone challenge, the cells were washed 3 times with medium 199 (GIBCO) to remove old medium and floating cells. Each treatment well contained a total volume of 1 ml medium 199 containing 1% BSA (fraction V; Sigma) with treatments as described below. Each antagonist candidate was tested using a single 24-well cell culture plate. Each treatment was performed in triplicate. Each plate contained 8 treatment groups: one 1 nM growth hormone releasing factor (GRF) (1-29)NH2-stimulated control group; one 1 nM somatostatin-inhibited control group in the presence of 1 nM GRF(1-29)NH2; and 6 doses of a given antagonist in the presence of both 1 nM SRIF and 1 nM GRF per plate. After 3 hrs at 37° C. in a air/carbon dioxide atmosphere (95/5%), the medium was removed and stored at −20° C. until radioimmunoassayed for growth hormone content. IC50's of each antagonist versus 1 nM SRIF were calculated using a computer program (SigmaPlot, Jandel Scientific, San Rafael, Calif.) with the maximum response constrained to the value of the 1 nM GRF(1-29)NH2-stimulated control.

| Compound | IC50 [nM] |
| --- | --- |
| CCCC[C@@H]1NC(=O)[C@H](CCCCN)NC(=O)[C@@H](Cc2c[nH]c3ccccc23)NC(=O)[C@H](Cc2cccnc2)NC(=O)[C@H](NC(=O)[C@@H](N)Cc2ccc3ccccc3c2)CSSC[C@@H](C(=O)N[C@@H](Cc2ccc3ccccc3c2)C(N)=O)NC1=O [Analog No. 31, H2-β-Nal-D-Cys-Pal-D-Trp-Lys-Nle-Cys-β-Nal-NH2] (H-[2Nal][dC][3Pal][dW]K[Nle]C[2Nal]-NH2; disulfide 2-7) | 3.8 |
| CC[C@H](C)[C@@H]1NC(=O)[C@H](CCCCN)NC(=O)[C@@H](Cc2c[nH]c3ccccc23)NC(=O)[C@H](Cc2cccnc2)NC(=O)[C@H](NC(=O)[C@@H](N)Cc2ccc3ccccc3c2)CSSC[C@@H](C(=O)N[C@@H](Cc2ccc3ccccc3c2)C(N)=O)NC1=O [Analog No. 32, H2-β-Nal-D-Cys-Pal-D-Trp-Lys-Ile-Cys-β-Nal-NH4] (H-[2Nal][dC][3Pal][dW]KIC[2Nal]-NH2; disulfide 2-7) | 12 |
| NCCCC[C@@H]1NC(=O)[C@@H](Cc2c[nH]c3ccccc23)NC(=O)[C@H](Cc2cccnc2)NC(=O)[C@H](NC(=O)[C@@H](N)Cc2ccc3ccccc3c2)CSSC[C@@H](C(=O)N[C@@H](Cc2ccc3ccccc3c2)C(N)=O)NC(=O)CNC1=O [Analog No. 33, H2-β-Nal-D-Cys-Pal-D-Trp-Lys-Gly-Cys-β-Nal-NH2] (H-[2Nal][dC][3Pal][dW]KGC[2Nal]-NH2; disulfide 2-7) | 1500 |
| C[C@@H]1NC(=O)[C@H](CCCCN)NC(=O)[C@@H](Cc2c[nH]c3ccccc23)NC(=O)[C@H](Cc2cccnc2)NC(=O)[C@H](NC(=O)[C@@H](N)Cc2ccc3ccccc3c2)CSSC[C@@H](C(=O)N[C@@H](Cc2ccc3ccccc3c2)C(N)=O)NC1=O [Analog No. 34, H2-β-Nal-D-Cys-Pal-D-Trp-Lys-Ala-Cys-β-Nal-NH2] (H-[2Nal][dC][3Pal][dW]KAC[2Nal]-NH2; disulfide 2-7) | 420 |
| CC[C@H](C)[C@@H]1NC(=O)[C@H](CCCCN)NC(=O)[C@@H](Cc2c[nH]c3ccccc23)NC(=O)[C@H](Cc2ccc(O)cc2)NC(=O)[C@H](NC(=O)[C@@H](N)Cc2ccc(-c3ccccc3)cc2)CSSC[C@@H](C(=O)N[C@@H](Cc2ccc(-c3ccccc3)cc2)C(N)=O)NC1=O [Analog No. 36, H2-Bip-D-Cys-Tyr-D-Trp-Lys-Ile-Cys-Bip-NH2] (H-[Bip][dC]Y[dW]KIC[Bip]-NH2; disulfide 2-7) | 1030 |
| CC(C)[C@@H]1NC(=O)[C@H](CCCCN)NC(=O)[C@@H](Cc2c[nH]c3ccccc23)NC(=O)[C@H](Cc2ccc(O)cc2)NC(=O)[C@H](NC(=O)[C@H](N)Cc2ccc(-c3ccccc3)cc2)CSSC[C@@H](C(=O)N[C@@H](Cc2ccc3ccccc3c2)C(N)=O)NC1=O [Analog No. 37, H2-D-Bip-D-Cys-Tyr-D-Trp-Lys-Val-Cys-β-Nal-NH2] (H-[dBip][dC]Y[dW]KVC[2Nal]-NH2; disulfide 2-7) | 780 |
| CC(C)[C@@H]1NC(=O)[C@H](CCCCN)NC(=O)[C@@H](Cc2c[nH]c3ccccc23)NC(=O)[C@H](Cc2cccnc2)NC(=O)[C@H](NC(=O)[C@@H](N)Cc2ccc([N+](=O)[O-])cc2)CSSC[C@@H](C(=O)N[C@@H](Cc2ccc(O)cc2)C(N)=O)NC1=O [Analog No. 39, H2-Npa-D-Cys-Pal-D-Trp-Lys-Val-Cys-Tyr-NH2] (H-[Phe(4-NO2)][dC][3Pal][dW]KVCY-NH2; disulfide 2-7) | 34 |

Second part, the molecule after the results:

| IC50 [nM] | Compound |
| --- | --- |
| 41 | CC(C)[C@@H]1NC(=O)[C@H](CCCCN)NC(=O)[C@@H](Cc2c[nH]c3ccccc23)NC(=O)[C@H](Cc2cccnc2)NC(=O)[C@H](NC(=O)[C@H](N)Cc2ccc(F)cc2)CSSC[C@@H](C(=O)N[C@H](Cc2ccc(F)cc2)C(N)=O)NC1=O [Analog No. 27, H2-D-p-F-Phe-D-Cys-Pal-D-Trp-Lys-Val-Cys-D-p-F-Phe-NH2] (H-[dPhe(4-F)][dC][3Pal][dW]KVC[dPhe(4-F)]-NH2; disulfide 2-7) |
| 100 | CC(C)[C@@H]1NC(=O)[C@H](CCCCN)NC(=O)[C@@H](Cc2c[nH]c3ccccc23)NC(=O)[C@H](Cc2cccnc2)NC(=O)[C@H](NC(=O)[C@@H](N)Cc2ccc3ccccc3c2)CSSC[C@@H](C(=O)N[C@H](Cc2ccc(F)cc2)C(N)=O)NC1=O [Analog No. 28, H2-β-Nal-D-Cys-Pal-D-Trp-Lys-Val-Cys-D-p-F-Phe-NH2] (H-[2Nal][dC][3Pal][dW]KVC[dPhe(4-F)]-NH2; disulfide 2-7) |
| 8.4 | CC(C)(C)[C@@H]1NC(=O)[C@H](CCCCN)NC(=O)[C@@H](Cc2c[nH]c3ccccc23)NC(=O)[C@H](Cc2cccnc2)NC(=O)[C@H](NC(=O)[C@@H](N)Cc2ccc3ccccc3c2)CSSC[C@@H](C(=O)N[C@@H](Cc2ccc3ccccc3c2)C(N)=O)NC1=O [Analog No. 29, H2-β-Nal-D-Cys-Pal-D-Trp-Lys-Tle-Cys-β-Nal-NH2] (H-[2Nal][dC][3Pal][dW]K[Tle]C[2Nal]-NH2; disulfide 2-7) |
| 6.5 | CC(C)[C@@H]1NC(=O)[C@H](CCCCN)NC(=O)[C@@H](Cc2c[nH]c3ccccc23)NC(=O)[C@H](Cc2cccnc2)NC(=O)[C@H](NC(=O)[C@@H](N)Cc2ccc(F)cc2)CSSC[C@@H](C(=O)N[C@@H](Cc2ccc3ccccc3c2)C(N)=O)NC1=O [Analog No. 30, H2-p-F-Phe-D-Cys-Pal-D-Trp-Lys-Val-Cys-β-Nal-NH2] (H-[Phe(4-F)][dC][3Pal][dW]KVC[2Nal]-NH2; disulfide 2-7) |
| 52 | CC(C)C[C@@H]1NC(=O)[C@H](CCCCN)NC(=O)[C@@H](Cc2c[nH]c3ccccc23)NC(=O)[C@H](Cc2cccnc2)NC(=O)[C@H](NC(=O)[C@@H](N)Cc2ccc3ccccc3c2)CSSC[C@@H](C(=O)N[C@@H](Cc2ccc3ccccc3c2)C(N)=O)NC1=O [Analog No. 35, H2-β-Nal-D-Cys-Pal-D-Trp-Lys-Leu-Cys-β-Nal-NH2] (H-[2Nal][dC][3Pal][dW]KLC[2Nal]-NH2; disulfide 2-7) |
| 110 | CC(C)[C@@H]1NC(=O)[C@H](CCCCN)NC(=O)[C@@H](Cc2c[nH]c3ccccc23)NC(=O)[C@H](Cc2c[nH]cn2)NC(=O)[C@H](NC(=O)[C@@H](N)Cc2ccc(F)cc2)CSSC[C@@H](C(=O)N[C@@H](Cc2ccc(F)cc2)C(N)=O)NC1=O [Analog No. 38, H2-p-F-Phe-D-Cys-His-D-Trp-Lys-Val-Cys-p-F-Phe-NH2] (H-[Phe(4-F)][dC]H[dW]KVC[Phe(4-F)]-NH2; disulfide 2-7) |

Same assay, conditions: cultured rat pituitary cells; 1 nM SRIF and 1 nM GRF(1-29)NH2; 3 hrs at 37° C.; growth hormone by radioimmunoassay; read-out: IC50 of antagonist versus 1 nM SRIF (growth hormone release)

| Compound | IC50 [nM] |
| --- | --- |
| CC(C)[C@@H]1NC(=O)[C@H](CCCCN)NC(=O)[C@@H](Cc2c[nH]c3ccccc23)NC(=O)[C@H](Cc2ccc(O)cc2)NC(=O)[C@H](NC(=O)[C@@H](N)Cc2c[nH]c3ccccc23)CSSC[C@@H](C(=O)N[C@H](Cc2ccc3ccccc3c2)C(N)=O)NC1=O [Analog No. 24, H2-Trp-D-Cys-Tyr-D-Trp-Lys-Val-Cys-D-β-Nal-NH2] (H-W[dC]Y[dW]KVC[d2Nal]-NH2; disulfide 2-7) | 68 |
| CC(C)[C@@H]1NC(=O)[C@H](CCCCN)NC(=O)[C@@H](Cc2c[nH]c3ccccc23)NC(=O)[C@H](Cc2ccc(O)cc2)NC(=O)[C@H](NC(=O)[C@@H](N)Cc2ccc3ccccc3c2)CSSC[C@@H](C(=O)N[C@H](Cc2ccc3ccccc3c2)C(N)=O)NC1=O [Analog No. 25, H2-β-Nal-D-Cys-Tyr-D-Trp-Lys-Val-Cys-D-β-Nal-NH2] (H-[2Nal][dC]Y[dW]KVC[d2Nal]-NH2; disulfide 2-7) | 280 |
| CC(C)[C@@H]1NC(=O)[C@H](CCCCN)NC(=O)[C@@H](Cc2c[nH]c3ccccc23)NC(=O)[C@H](Cc2ccc(O)cc2)NC(=O)[C@H](NC(=O)[C@H](N)Cc2ccc3ccccc3c2)CSSC[C@@H](C(=O)N[C@H](Cc2ccc3ccccc3c2)C(N)=O)NC1=O [Analog No. 26, H2-D-β-Nal-D-Cys-Tyr-D-Trp-Lys-Val-Cys-D-β-Nal-NH2] (H-[d2Nal][dC]Y[dW]KVC[d2Nal]-NH2; disulfide 2-7) | 380 |
